Data on 29 compounds can be found in paper PMC12110804, “Molecular Characterization and Functional Analysis of Odorant-Binding Proteins in Ectropis grisescens” (International Journal of Molecular Sciences, 2025).

“Also recorded” adds a separate entry of the source. Like-named read-outs stand apart in the source and are kept apart here.

In assay [1] the test system is CpalOBP2. Details: method as in PMID 25810363. The note with it: cited from earlier work.
Assay [2] deals with C. pallens. Further details: method as in PMID 25810363. The conditions noted are these: glass Y-tube olfactometer; cited from earlier work.
The target in assay [3] is T1, EgriGOBP2 (Ectropis grisescens, UniProt A0A977IVV0). The assay can be described thus: Fluorescence competitive binding assay (1-NPN displacement) with recombinant EgriGOBP2. The note with it: for binding to EgriGOBP2 (in words, displacement of 1-NPN fluorescence): non-binding ligands. As to the method:
The excitation wavelength was 337 nm, and the emission spectrum ranged from 370 to 550 nm. […] The binding curves were linearized using Scatchard plots, based on fluorescence intensity values relative to the maximum fluorescence emissions.
The dissociation constants (Ki) of each ligand were calculated with the following equation: Ki = [IC50]/(1 + [1-NPN]/K1-NPN).

The subject of assay [4] is RpedOBP38. Further details: method as in PMID 39835200. The conditions noted are these: plant essential oil-derived volatiles with repellent activity; cited from earlier work.
Assay [5] deals with AgamOBP5. Details: method as in PMID 36921814. The conditions noted are these: cited from earlier work.
The subject of assay [6] is Sitophilus zeamais. Details: method as in PMID 31813390. The note with it: cited from earlier work.
Assay [7] has as its system Frankliniella occidentalis, Frankliniella intonsa, and Thrips palmi Karny. Details: method as in PMID 33346361. The conditions noted are these: Y-tube olfactometer bioassays; cited from earlier work.
The target of assay [8] is T1, EgriGOBP2. The assay can be described thus: Binding of fluorescent probe 1-NPN to recombinant EgriGOBP2 (binding curve, Scatchard plot). The conditions noted are these: 2 µM protein in 20 mM Tris-HCl pH 7.4, 1-NPN 0–16 µM, read-out: dissociation constant (Kd) of 1-NPN. As to the method:
The binding affinities of target proteins were measured with an F-7000 fluorescence spectrophotometer (Hitachi, Tokyo, Japan) using a 1 cm light path quartz cuvette, and 1-N-phenyl-naphthylamine (1-NPN) was used as a fluorescent probe. The excitation wavelength was 337 nm, and the emission spectrum ranged from 370 to 550 nm. A total of 24 volatile compounds, including host volatiles and plant essential oil-derived volatiles, were selected for fluorescence competitive binding assays (Table 2). First, the binding affinities of 1-NPN to the target proteins were determined. The protein solutions (2 µM in 20 mM Tris-HCl, pH = 7.4) were titrated with 1-NPN to final concentrations ranging from 0 to 16 µM. The binding curves were linearized using Scatchard plots, based on fluorescence intensity values relative to the maximum fluorescence emissions. Next, each ligand (at concentrations of 0–16 µM, prepared at a 1 mM stock concentration) was added to the 2 µM EgriGOBP2/1-NPN mixture, and competitive binding curves were plotted based on the fluorescence intensity values from three replicates.
The dissociation constants (Ki) of each ligand were calculated with the following equation: Ki = [IC50]/(1 + [1-NPN]/K1-NPN). […]

The subject of assay [9] is GOBP2 in Ectropis obliqua. Details: method as in PMID 29543772. The note with it: host odors; cited from earlier work.
The mark [10] stands for this setting: Ki = [IC50]/(1 + [1-NPN]/K1-NPN), 2 µM EgriGOBP2/1-NPN mixture, pH 7.4, read-out: EgriGOBP2 Ki.
Where [11] appears, read: displacement of 1-NPN from 2 µM EgriGOBP2/1-NPN mixture, 20 mM Tris-HCl pH 7.4, ligand 0–16 µM, read-out: EgriGOBP2 IC50.
[12] abbreviates: EgriGOBP2 Ki (dash cells), “-”: no detectable Ki.
The mark [13] stands for this setting: EgriGOBP2 Ki, Ki = [IC50]/(1 + [1-NPN]/K1-NPN), 2 µM EgriGOBP2/1-NPN mixture, pH 7.4.
The mark [14] stands for this setting: cells printed as “-”: IC50 could not be calculated, read-out: EgriGOBP2 IC50 (dash cells).
The mark [15] stands for this setting: “-”: no detectable Ki, read-out: EgriGOBP2 Ki (dash cells).

T1 sequence (A0A977IVV0 entry or part of it): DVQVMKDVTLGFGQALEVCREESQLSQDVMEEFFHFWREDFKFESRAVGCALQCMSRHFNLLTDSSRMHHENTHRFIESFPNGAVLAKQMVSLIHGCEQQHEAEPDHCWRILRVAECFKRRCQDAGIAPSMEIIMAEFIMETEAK

Take farnesene: the “binding affinity for CpalOBP2 (in words)” value in [1] was “strong and high binding affinities”. Besides, in assay [2], the “behavioral response of C. pallens (in words)” value was “significant and strong repellent behavioral responses”.

For `CC(C)=CCC/C(C)=C/CC/C(C)=C/CO` [farnesol], the “binding affinity for CpalOBP2 (in words)” value in assay [1] is “strong and high binding affinities”. Besides, the “behavioral response of C. pallens (in words)” value in [2] is “significant and strong repellent behavioral responses”.

In general, Ki refers to the equilibrium dissociation constant of an inhibitor or competing ligand from its target. As a reminder, the IC50 is the point on the concentration scale where inhibition reaches its midpoint. As to `CC(=O)OCc1ccccc1` [Benzyl acetate], in assay [3] (setting [10]), the inhibitory constant (Ki) came to 13 µM. Further, the IC50 in assay [3] (setting [11]) turned out to be 14.3 µM.

For the compound `CC1=CC[C@](O)(C(C)C)CC1` [(+) -4-terpineol], the “binding to RpedOBP38 (in words)” value in assay [4] is reported as “found to bind”.

For `O=C/C=C/c1ccccc1` [Cinnamaldehyde], in [3], the IC50 was over 16 µM and the “binding to EgriGOBP2 (in words, displacement of 1-NPN fluorescence)” value (from here on “binding to EgriGOBP2”) is given as “did not bind”. Moreover, the Ki in assay [3] (setting [12]) was over 14.4 µM.

For the compound `CC(=O)OC/C=C(\C)CCC=C(C)C` [Geranyl acetate], the Ki in [3] (setting [10]) came out at 22.3 µM. For the same compound, in assay [3] (setting [11]), the half-maximal inhibitory concentration (IC50) was determined as 24.7 µM.

For the compound `C=CCc1ccc(OC)cc1` [4-allylanisole], the half-inhibitory concentration (IC50) in assay [3] was 8.1 µM. In addition, the inhibition constant Ki in assay [3] (setting [13]) turned out to be 7.31 µM.

For `C=CC(C)(O)CCC=C(C)CCC=C(C)C` (mixture of isomers) [Nerolidol], the inhibitory constant (Ki) in assay [3] (setting [10]) was determined as 7.93 µM. Further, in assay [3] (setting [11]), the concentration for half-maximal inhibition (IC50) stood at 8.79 µM.

Turning to `CC/C=C\CCOC(C)=O` [Cis-3-hexenyl acetate], in [3] (setting [10]), the inhibition constant Ki turned out to be 13.1 µM. Besides, the IC50 in assay [3] (setting [11]) was 14.5 µM.

With `Cc1ccc(C(C)C)cc1O` [Carvacrol], the “binding to RpedOBP38 (in words)” value in [4] is on record as “found to bind”. In [3], the concentration for half-maximal inhibition (IC50) is 23.6 µM. Moreover, in [3] (setting [13]), the inhibitory constant (Ki) worked out at 21.3 µM. Also, the “binding to AgamOBP5 (in words)” value in assay [5] was “strong binder”.

For `CCCCCCCCCC=O` [Decanal], the concentration for half-maximal inhibition (IC50) in assay [3] (setting [14]) was over 16 µM. Besides, the “binding to EgriGOBP2” value in assay [3] is reported as “negligible binding”. The inhibition constant Ki in assay [3] (setting [15]) is over 14.4 µM.

As for `C=C(C)C1CC=C(C)C(=O)C1` (centres unmarked) [Carvone], the “repellency to Sitophilus zeamais (in words)” value in [6] is given as “strongly repellent”.

As for `CC12CCC(CC1)C(C)(C)O2` [Eucalyptol], the inhibition constant (Ki) in assay [3] (setting [10]) was under 10 µM. For the same compound, the half-inhibitory concentration (IC50) in [3] (setting [11]) is 9.36 µM. The “repellent activity against three thrip species (in words)” value in [7] is listed as “significant repellent activity”.

Turning to `CCCCCCO` [n-hexyl alcohol], in [3] (setting [10]), the Ki came out at 21.2 µM. For the same compound, in assay [3] (setting [11]), the 50% inhibitory concentration (IC50) amounted to 23.5 µM.

As to `C=CC(C)=CCC=C(C)C` [Ocimene], in assay [3], the “binding affinity to EgriGOBP2 (class in words)” value (shortened to “binding affinity to EgriGOBP2”) was “moderate (moderate (22 µM < Ki ≤ 40 µM))”. For the same compound, the Ki in assay [3] (setting [10]) worked out at 18 µM. In addition, in [3] (setting [11]), the IC50 came to 19.9 µM.

For the compound `CCC/C=C/C=O` [E-2-hexenal], in [3], the IC50 is over 16 µM and the “binding to EgriGOBP2” value is “negligible binding; also recorded: did not exhibit binding affinity”. Moreover, the inhibition constant (Ki) in [3] (setting [12]) is over 14.4 µM.

`CC/C=C\CCOC(=O)CCC` [Cis-3-hexenyl tyrate]: the “binding affinity to EgriGOBP2” value in [3] was “moderate (moderate (22 µM < Ki ≤ 40 µM))”. The inhibitory constant (Ki) in assay [3] (setting [10]) stood at 18.6 µM. Further, the IC50 in assay [3] (setting [11]) came to 20.6 µM.

With `C=CC(C)(O)CCC=C(C)C` (centres unmarked) [Linalool], in assay [3], the IC50 came out at 11.9 µM. The Ki in assay [3] (setting [13]) is 10.8 µM.

`CC/C=C\CCOC(=O)CCCCC` [Cis-3-hexenyl caproate]: the Ki in [3] (setting [10]) is 14 µM. Besides, in assay [3] (setting [11]), the concentration for half-maximal inhibition (IC50) was found to be 15.5 µM.

`OCc1ccccc1` [Benzyl alcohol]: the concentration for half-maximal inhibition (IC50) in assay [3] was determined as 30 µM. Further, the Ki in assay [3] (setting [13]) turned out to be 27 µM.

In the case of `C=C(C)[C@@H]1CC=C(C)C(=O)C1` [L(-)-carvone], the “binding to RpedOBP38 (in words)” value in assay [4] is “found to bind”. The inhibition constant (Ki) in [3] (setting [10]) was found to be 11.6 µM. Moreover, the IC50 in [3] (setting [11]) is 12.9 µM.

Regarding `C=CC(O)CC` (centres unmarked) [1-penten-3-ol], the Ki in assay [3] (setting [10]) came to 40.6 µM. Also, the concentration for half-maximal inhibition (IC50) in [3] (setting [11]) stood at 44.8 µM.

Broadly, the Kd is the constant that tells how readily two partners part at equilibrium. For `c1ccc(Nc2cccc3ccccc23)cc1` [1-NPN, 1-N-phenyl-naphthylamine], the Kd in [8] was 9.28 µM.

`C=C(C)[C@H]1CC=C(C)C(=O)C1` [(S)-(+)-carvone]: the “binding affinity to EgriGOBP2” value in assay [3] is “strong (strong (6 µM < Ki ≤ 22 µM))”. The concentration for half-maximal inhibition (IC50) in assay [3] (setting [11]) came out at 5.36 µM.

Turning to `O=Cc1ccccc1` [Benzaldehyde], in [3], the IC50 was over 16 µM and the “binding to EgriGOBP2” value is “negligible binding; also recorded: did not exhibit binding affinity”. Besides, the Ki in assay [3] (setting [12]) is over 14.4 µM. Also, the “competitive binding to Ectropis obliqua GOBP2 (in words)” value in assay [9] is recorded as “competitively bind”.

On to `CC(C)=CCCC(C)=CC=O` (mixture of isomers) [Citral], for which the half-inhibitory concentration (IC50) in assay [3] came to 9.12 µM. For the same compound, the inhibition constant Ki in assay [3] (setting [13]) turned out to be 8.23 µM.

On to `CCCCCCCCC=O` [Nonanal], for which the 50% inhibitory concentration (IC50) in [3] (setting [14]) was over 16 µM. In addition, the “binding to EgriGOBP2” value in assay [3] is given as “negligible binding; also recorded: did not exhibit binding affinity”. Further, the Ki in assay [3] (setting [15]) is over 14.4 µM.

Regarding `C=CCc1ccc(O)c(OC)c1` [Eugenol], the IC50 in assay [3] is 9.28 µM. In assay [3] (setting [13]), the Ki is 8.38 µM.

Turning to `COC(=O)c1ccccc1O` [Methyl salicylate], the IC50 in assay [3] stood at 17.3 µM. Further, in assay [3] (setting [13]), the Ki amounted to 15.6 µM. The “competitive binding to Ectropis obliqua GOBP2 (in words)” value in [9] is listed as “competitively bind”.
